Marks after values point to notes of the source that are not given here.
Assays:
C3H10T1/2 cells [1] = test: Attachment of C3H10T1/2 cells to silyl-heparin coated wells complexed with adhesive molecules, crystal violet; assay type: cell-based, murine; set-up: unit not given here; conditions: after two hours; hydrogel-polystyrene 96-well plates coated with silyl-heparin complexes and the listed adhesive molecule; proteins 100 μg/ml, serum undiluted
Protocol: Attachment of C3H10T1/2 cells after two hours to wells of 96-well, hydrogel-polystyrene plates coated with silyl-heparin complexes and the listed adhesive molecule was detected by staining with crystal violet. All proteins were used at a concentration of 100 μg/ml in buffered saline. Serum was used without dilution. Statistical significance was assessed relative to the values from buffered saline using Student's t-test, with * indicating p<0.05, ** indicating p<0.01 and *** indicating p<0.001.

bFGF = target: T1, bFGF (Homo sapiens, UniProt P09038); test: Effect of adhesive molecules complexed to silyl-heparin on subsequent bFGF binding; conditions: adhesive molecule complexed to silyl-heparin at 100 μg/mL before bFGF
T1 construct: purchased Sigma Chemical Co
Protocol: Wells of 96 well polystyrene microtiter plates, with a well surface area of 0.32 cm^2, were coated with 30 μl of silyl heparin for 15 minutes at 37° C. After rinsing and air-drying, bFGF (Sigma Chemical Co.) in PBS/BSA was added in 150 μL aliquots in doubling dilutions. The plate was incubated at 37° C. for 1 hour and rinsed 5 times in PBS. An aliquot 150 μl of PBS/BSA containing 1:500 rabbit anti-FGF antibodies were added, incubated for 1 hour and rinsed. In some cases an irrelevant rabbit antibody was used at a similar concentration (rabbit anti-TGF-receptor II, Santa Cruz Biotechnology). An aliquot of PBS/BSA containing 1:500 HRPO-conjugated donkey anti-rabbit IgG added, and after incubation and rinsing ABTS-chromogen added. All antibody solutions were filtered through 0.2 micron filters prior to use. The absorbance was monitored at 405 nm. […] When anti-TGF-II (irrelevant antibody directed against the transforming growth factor receptor) was used instead of anti-FGF and at the same anti-dilutions, no bFGF was detected. When TGF-β, at a concentration of 40 ng was used as the growth factor molecule, no activity was detected with anti-bFGF antibodies.
Murine type IV collagen, human fibrinogen and bovine fibronectin isolated from plasma were bound to silyl-heparin complexes bound to wells of polystyrene microtiter plates, at a concentration of 100 μg/mL in PBS/BSA. […]

C3H10T1/2 cells [2] = test: C3H10T1/2 cell attachment to a variety of coated substrates; assay type: cell-based, murine
Protocol: (§1) The cells were examined after plating using an inverted, phase-contrast microscope. At selected time points up to 4 days after initial seeding, the cells were rinsed three times in saline and fixed in buffered 10% formalin or 35% ethanol. In some cases, the cells were stained in situ with a 0.01 % aqueous solution of crystal violet. The amount of attachment was scored visually or quantitated. To establish the relative number of cells bound, crystal violet stained cells were dissolved in a solution of 70% ethanol containing 0.1% sodium dodecyl sulfate and 0.38 M Tris and the absorbance monitored at 610 nm, using the methods of Scragg and Ferreira (Anal Biochem 198:80-5, 1991) and Grando et al. (Skin Pharmacol 6:135-47, 1993).
The general applicability of silyl-heparin-fibronectin complex was evaluated by applying this coating using the methods of Examples 4 and 5 to a variety of surfaces, including polystyrene, polylactide:polyglycolide, polycaprolactone, polyurethane and stainless steel. […] They did, however, bind moderately well to polylactide:polyglycolide and to polycaprolactone, and very well to stainless steel.

[3] = system: GS-9L cells (rat gliosarcoma); test: Cell attachment, spreading and growth on coated low-attachment polystyrene wells; assay type: cell-based; conditions: 10^4 cells/well, serum-containing medium
Source text: (§2) Several cell types were used, including GS-9L cells (rat gliosarcoma), C3H10T1/2 (murine fibroblasts), Jurkat (human T cell), bovine aorta endothelial (BAE) cells and rat lymphocytes. GS-9L and C3H10T1/2 cells were maintained in log phase growth and detached from cultureware using Versene and collected by centrifugation. Jurkat cells grew as single cell suspensions and were collected by centrifugation. Rat lymphocytes were collected from heparinized blood by density gradient isolation over Ficoll-Hypaque® media. The collected cells were rinsed once by low speed centrifugation and suspended in either serum-free Dulbecco's Modified Eagles Medium (DMEM) containing pyruvate or RPMI 1640 containing 10% fetal bovine serum (FBS) supplemented with pyruvate. Aliquots of 10^4 cells in 100 μL were used in subsequent adhesion studies.
as §1
(§3) The cells of Example 7 were added to untreated polystyrene wells, wells coated with silyl-heparin as in Example 4, with silyl-heparin-fibronectin as in Example 5, and with only fibronectin by incubation as described in Example 5. […] Cells were seeded at a concentration of 10^4 cells/well in serum-containing medium.
The cells grew to confluency by 4 days. […] No effort was made to grow the cells in a defined- or serum-low medium known to support growth.

[4] = system: C3H10T1/2 (murine fibroblasts); test: as above; assay type: cell-based
Source text: as §2, §1, §3
The cells grew to confluency by 4 days. […] No effort was made to grow the cells in a defined- or serum-low medium known to support growth. […]

[5] = affinity binding of fibronectin to heparin; cited from earlier work
C3H10T1/2 cells [6] = test: Cross-titration of fibronectin and silyl-heparin needed to support cell attachment; assay type: cell-based, murine; conditions: fibronectin titrated from 4 μg/well on silyl-heparin applied at 30 μg/well; 24 hours; crystal violet, 610 nm
Protocol: The optimal amount of fibronectin and silyl-heparin to support attachment of C3H10T1/2 cells was determined by cross-titration, as shown on FIG. 1. […] The fall-off for the silyl-heparin was more gradual. The curve of the relative amount of silyl-heparin on the substrate following serial dilution generally followed the cell attachment curve.
In FIG. 1, fibronectin (Δ—Δ) or silyl-heparin (•—•) were titrated to determine the quantity needed to support attachment of C3H10T1/2 cells. All dilutions were performed in quadruplicate in wells of 96-well plates of low-attachment polystyrene. For titration of fibronectin, silyl-heparin was applied at 30 μg/well in 70% ethanol as in Example 4. After rinsing, fibronectin was applied in doubling dilutions of phosphate buffered saline starting from 4 μg/well. For titration of silyl-heparin, silyl-heparin was applied in doubling dilutions in 70% ethanol starting from silyl-heparin concentrations of 30 μg/well. Fibronectin was then applied in saline at 4 μg/well. Cells were at a concentration of 10^4 cells/well in growth medium. For both experiments, the cells were allowed 24 hours to attach and then were rinsed and fixed in buffered formalin. The cells were stained for 5 minutes with 0.01% aqueous crystal violet and the absorbance at 610 nm determined.

[7] = system: Bovine aorta endothelial cells; test: Capillary tube formation on coated low attachment wells; assay type: cell-based; conditions: 5×10^3 cells per well; DMEM containing 10% FBS; 4 days; phase contrast microscopy
Protocol: Low attachment 96 well plates were coated with saline, silyl-heparin complex, silyl-heparin-fibrinogen complex or silyl-heparin-bFGF complex. Bovine aorta endothelial cells (5×10^3 cells) were seeded into each well in DMEM containing 10% FBS. The cells were allowed to grow for 4 days and the cultures examined by phase contrast microscopy.

T1 sequence (P09038 143-288, species assumed): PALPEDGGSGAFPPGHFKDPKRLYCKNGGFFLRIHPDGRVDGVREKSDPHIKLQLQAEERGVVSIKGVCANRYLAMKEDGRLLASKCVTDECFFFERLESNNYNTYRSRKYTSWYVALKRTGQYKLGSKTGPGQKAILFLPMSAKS

Substance: poly-l-lysine [reference compound]
- attachment of C3H10T1/2 cells by crystal violet staining, Average ± S.E. (C3H10T1/2 cells [1]): 1.18 ± 0.06***

Substance: fibronectin: bovine plasma fibronectin, adhesive molecule
- effect on binding of bFGF to the silyl-heparin-adhesive molecule complex (bFGF): significantly decreased the binding of bFGF
- attachment of C3H10T1/2 cells by crystal violet staining, Average ± S.E. (C3H10T1/2 cells [1]): 1.00 ± 0.10**
- C3H10T1/2 CELL ATTACHMENT (C3H10T1/2 cells [2]; surface: Polyactide:polyglycolide): improve the attachment of cells
- C3H10T1/2 CELL ATTACHMENT (C3H10T1/2 cells [2]; surface: Polystyrene): did not significantly support cell attachment
- C3H10T1/2 CELL ATTACHMENT (C3H10T1/2 cells [2]; surface: Polyurethane): improve the attachment of cells
- CELL ATTACHMENT [3]: isolated C3H10T1/2 cells and isolated GS-9L cells were found attached
- CELL ATTACHMENT ([4]; C3H10T1/2, coated low-attachment polystyrene wells, 10^4 cells/well, serum-containing medium): isolated C3H10T1/2 cells and isolated GS-9L cells were found attached
- affinity constant [5]: approximately 10^8 M/L
- EC50 to support attachment of C3H10T1/2 cells (C3H10T1/2 cells [6]): approximately 0.5 μg/well

Substance: transferrin: protein used at 100 μg/ml on silyl-heparin coated wells
- attachment of C3H10T1/2 cells by crystal violet staining, Average ± S.E. (C3H10T1/2 cells [1]): 0.15 ± 0.03

Substance: gelatin
- attachment of C3H10T1/2 cells by crystal violet staining, Average ± S.E. (C3H10T1/2 cells [1]): 0.15 ± 0.05

Substance: fibrinogen
- effect on binding of bFGF to the silyl-heparin-adhesive molecule complex (bFGF): less significant decrease in binding
- attachment of C3H10T1/2 cells by crystal violet staining, Average ± S.E. (C3H10T1/2 cells [1]): 1.63 ± 0.17**
- capillary tube formation [7]: Tubes did not form

Substance: bFGF: basic fibroblast growth factor (Sigma Chemical Co.)
- capillary tube formation [7]: Tubes did not form

Substance: heparin [reference compound]
- effect of coating or treatment on C3H10T1/2 cell attachment (C3H10T1/2 cells [2]; regardless of the substrate): did not inhibit attachment
- effect of heparin added to the medium on attachment or growth of cells ([4]; up to 10 U of heparin, C3H10T1/2 plated onto silyl-heparin-fibronectin coated plates): did not inhibit the attachment or growth

Substance: poly-l-ornithine [reference compound]
- attachment of C3H10T1/2 cells by crystal violet staining, Average ± S.E. (C3H10T1/2 cells [1]): 0.92 ± 0.28*

Source: patent US6921811B2, “Bioactive coating composition and methods” (BioSurface Engineering Technologies, Inc., priority 1998, dated 2005)
